The text below walks through data of PubChem BioAssay AID192 (DTP/NCI, 2004).

“And” between values parts separate entries of the source, which are not always exact repeats. Identical values can stand only once. Inconclusive results and toxic doses are left out. Peptide text beside a SMILES is read from it.

The subject of this test is BDF1 mice, B16 melanoma ip, median survival T/C. Description: NCI In Vivo Anticancer Drug Screen. Data for tumor model B16 Melanoma (intraperitoneal) in B6D2F1 (BDF1) mice. The following applies: endpoint: median survival time, higher = longer survival. The gist of the method:
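The ratio T/C compares compound-treated mice with vehicle-treated controls, using survival or tumor size as the endpoint in a transplantable tumor model.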

Where [1] appears, read: dose: 100.0 mg/kg/injection, schedule: Q01DX009 (ip), vehicle: Klucel (hydroxypropylcellulose) (HPC).
Where [2] appears, read: dose: 200.0 mg/kg/injection, schedule: Q01DX009 (ip), vehicle: Klucel (hydroxypropylcellulose) (HPC).
[3] abbreviates: dose: 400.0 mg/kg/injection, schedule: Q01DX009 (ip), vehicle: Klucel (hydroxypropylcellulose) (HPC).
Setting [4] is: dose: 25.0 mg/kg/injection, schedule: Q01DX009 (ip), vehicle: Klucel (hydroxypropylcellulose) (HPC).
The mark [5] stands for this setting: dose: 50.0 mg/kg/injection, schedule: Q01DX009 (ip), vehicle: Klucel (hydroxypropylcellulose) (HPC).
Setting [6] is: dose: 50.0 mg/kg/injection, schedule: Q01DX009 (ip), vehicle: saline.
[7] abbreviates: dose: 100.0 mg/kg/injection, schedule: Q01DX009 (ip), vehicle: saline.
Setting [8] is: dose: 200.0 mg/kg/injection, schedule: Q01DX009 (ip), vehicle: saline.
The mark [9] stands for this setting: dose: 100.0 mg/kg/injection, schedule: Q04DX003 (ip), vehicle: Klucel (hydroxypropylcellulose) (HPC).
Where [10] appears, read: dose: 200.0 mg/kg/injection, schedule: Q04DX003 (ip), vehicle: Klucel (hydroxypropylcellulose) (HPC).
Where [11] appears, read: dose: 100.0 mg/kg/injection, schedule: Q01DX009 (ip), vehicle: saline with Tween-80.
Where [12] appears, read: dose: 200.0 mg/kg/injection, schedule: Q01DX009 (ip), vehicle: saline with Tween-80.
The mark [13] stands for this setting: dose: 400.0 mg/kg/injection, schedule: Q01DX009 (ip), vehicle: saline with Tween-80.
[14] abbreviates: dose: 12.5 mg/kg/injection, schedule: Q01DX009 (ip), vehicle: saline.
The mark [15] stands for this setting: dose: 25.0 mg/kg/injection, schedule: Q01DX009 (ip), vehicle: saline.

For `O=C(COc1cc(Cl)c(Cl)cc1Cl)OCCOc1cc(Cl)c(Cl)cc1Cl`, the T/C reads like this: (dose: 12.0 mg/kg/injection, schedule: Q01DX009 (ip), vehicle: Klucel (hydroxypropylcellulose) (HPC)) 98 % of control; (dose: 24.0 mg/kg/injection, schedule: Q01DX009 (ip), vehicle: Klucel (hydroxypropylcellulose) (HPC)) 98 % of control; (dose: 48.0 mg/kg/injection, schedule: Q01DX009 (ip), vehicle: Klucel (hydroxypropylcellulose) (HPC)) 91 % of control; (dose: 96.0 mg/kg/injection, schedule: Q01DX009 (ip), vehicle: Klucel (hydroxypropylcellulose) (HPC)) 93 % of control.
On to `CCOc1ccccc1NC(=O)Nc1cccc(Cl)c1`, for which the T/C runs as follows: under setting [1], 106 % of control; under setting [2], 96 % of control; under setting [3], 106 % of control.
For the compound `COc1cc2cccc(OC)c(=O)c2c(O)c1OC`, the T/C under setting [4] was 97 % of control, the T/C under setting [5] is 105 % of control and the T/C under setting [1] was 97 % of control.
For the compound `OC(C1CO1)(C(F)(F)F)C(F)(F)F` (configuration not stated), the T/C by setting is: under setting [6], 92 % of control; under setting [7], 90 % of control; under setting [8], 92 % of control.
With `O=C(CCl)N1c2ccccc2Sc2ccc(Cl)cc21`, the T/C is, setting by setting: (dose: 6.25 mg/kg/injection, schedule: Q01DX009 (ip), vehicle: other) 107 % of control; (dose: 12.5 mg/kg/injection, schedule: Q01DX009 (ip), vehicle: other) 100 % of control; (dose: 25.0 mg/kg/injection, schedule: Q01DX009 (ip), vehicle: other) 100 % of control; (dose: 50.0 mg/kg/injection, schedule: Q01DX009 (ip), vehicle: other) 94 % of control; (dose: 100.0 mg/kg/injection, schedule: Q01DX009 (ip), vehicle: other) 87 % of control.
Consider `CC(C)OC(=O)Nc1ccc(-c2ccc(NC(=O)OC(C)C)cc2)cc1`, for which the T/C reads like this: under setting [1], 109 % of control; under setting [9], 109 % of control; under setting [2], 118 % of control; under setting [10], 90 % of control; under setting [3], 109 % of control; (dose: 400.0 mg/kg/injection, schedule: Q04DX003 (ip), vehicle: Klucel (hydroxypropylcellulose) (HPC)) 92 % of control.
Consider `CCCOCC(O)CO` (configuration not stated), for which the T/C was 118 % of control under setting [7]; 118 % of control under setting [8]; 112 % of control (dose: 400.0 mg/kg/injection, schedule: Q01DX009 (ip), vehicle: saline).
Turning to `CCCCC(CCCC)c1ccccn1`, the T/C is 104 % of control (dose: 6.25 mg/kg/injection, schedule: Q01DX009 (ip), vehicle: saline with Tween-80); 108 % of control (dose: 12.5 mg/kg/injection, schedule: Q01DX009 (ip), vehicle: saline with Tween-80); 102 % of control (dose: 25.0 mg/kg/injection, schedule: Q01DX009 (ip), vehicle: saline with Tween-80).
Regarding `Cc1ccc(NC(=S)NC(Cc2ccccc2)c2ccccc2)cc1` (configuration not stated), the T/C by setting is: (dose: 12.5 mg/kg/injection, schedule: Q01DX009 (ip), vehicle: Klucel (hydroxypropylcellulose) (HPC)) 102 % of control; under setting [4], 100 % of control; (dose: 37.5 mg/kg/injection, schedule: Q04DX003 (ip), vehicle: Klucel (hydroxypropylcellulose) (HPC)) 100 % of control; under setting [5], 100 % of control; (dose: 75.0 mg/kg/injection, schedule: Q04DX003 (ip), vehicle: Klucel (hydroxypropylcellulose) (HPC)) 92 % of control; (dose: 150.0 mg/kg/injection, schedule: Q04DX003 (ip), vehicle: Klucel (hydroxypropylcellulose) (HPC)) 100 % of control.
As to `Cc1[nH]c(=O)[nH]c(=O)c1C`, the T/C (dose: 50.0 mg/kg/injection, schedule: Q04DX003 (ip), vehicle: Klucel (hydroxypropylcellulose) (HPC)) was 88 % of control; the T/C under setting [1] was 88 % of control; the T/C under setting [9] was 97 % of control; the T/C under setting [2] is 91 % of control; the T/C under setting [10] was 91 % of control.
Consider `CC(C)C(NC(=O)C(N)CCC(=O)O)C(=O)O` (stereo not drawn) (H-Glu-Val-OH; configuration not given here), for which the T/C by setting is: (dose: 50.0 mg/kg/injection, schedule: Q01DX009 (ip), vehicle: saline with Tween-80) 109 % of control; under setting [11], 104 % of control; under setting [12], 108 % of control; under setting [13], 98 % of control.
Turning to `CNC(=O)ON(C(C)=O)C(=O)NC`, the T/C under setting [14] was 87 % of control and the T/C under setting [15] was 88 % of control.
In the case of `Cc1ccc(NC(=O)c2ccccc2)cc1[As]=[As]c1cc(NC(=O)c2ccccc2)ccc1C` (configuration not stated), the T/C is 107 % of control (dose: 0.04 mg/kg/injection, schedule: Q01DX009 (ip), vehicle: saline with Tween-80); 102 % of control (dose: 0.08 mg/kg/injection, schedule: Q01DX009 (ip), vehicle: saline with Tween-80); 101 % of control (dose: 0.08 mg/kg/injection, schedule: Q04DX003 (ip), vehicle: saline); 104 % of control (dose: 0.15 mg/kg/injection, schedule: Q01DX009 (ip), vehicle: saline with Tween-80); 91 % of control (dose: 0.15 mg/kg/injection, schedule: Q04DX003 (ip), vehicle: saline); 101 % of control (dose: 0.16 mg/kg/injection, schedule: Q04DX003 (ip), vehicle: Klucel (hydroxypropylcellulose) (HPC)). The T/C is, setting by setting: (dose: 0.3 mg/kg/injection, schedule: Q01DX009 (ip), vehicle: saline with Tween-80) 100 % of control; (dose: 0.3 mg/kg/injection, schedule: Q04DX003 (ip), vehicle: saline) 92 % of control; (dose: 0.31 mg/kg/injection, schedule: Q04DX003 (ip), vehicle: Klucel (hydroxypropylcellulose) (HPC)) 98 % of control; (dose: 0.6 mg/kg/injection, schedule: Q04DX003 (ip), vehicle: saline) 91 % of control; (dose: 0.63 mg/kg/injection, schedule: Q04DX003 (ip), vehicle: saline with Tween-80) 89 % of control; (dose: 2.5 mg/kg/injection, schedule: Q04DX003 (ip), vehicle: saline with Tween-80) 161 % of control. The T/C (dose: 5.0 mg/kg/injection, schedule: Q04DX003 (ip), vehicle: saline with Tween-80) is 105 % of control.
For `OC(CCl)Cc1ccccc1` (configuration not stated), the T/C is, setting by setting: under setting [14], 102 % of control; under setting [15], 95 % of control; under setting [6], 100 % of control.
Consider `O=C(CCN1CC1)Nc1cccc(NC(=O)CCN2CC2)c1`, for which the T/C runs as follows: (dose: 2.5 mg/kg/injection, schedule: Q01DX009 (ip), vehicle: Klucel (hydroxypropylcellulose) (HPC)) 156 % of control; (dose: 5.0 mg/kg/injection, schedule: Q01DX009 (ip), vehicle: Klucel (hydroxypropylcellulose) (HPC)) 153 % of control and 173 % of control; (dose: 10.0 mg/kg/injection, schedule: Q01DX009 (ip), vehicle: Klucel (hydroxypropylcellulose) (HPC)) 211 % of control and 268 % of control.
For the compound `CC1(C)N=C(N)N=C(N)N1c1cccc(CCC(=O)Nc2ccc(S(=O)(=O)F)cc2)c1`, the T/C by setting is: (dose: 30.0 mg/kg/injection, schedule: Q01DX009 (ip), vehicle: saline with Tween-80) 113 % of control; (dose: 60.0 mg/kg/injection, schedule: Q01DX009 (ip), vehicle: saline with Tween-80) 123 % of control; (dose: 120.0 mg/kg/injection, schedule: Q01DX009 (ip), vehicle: saline with Tween-80) 110 % of control.
On to `O=C(O)C1CC[N-]CC1.O=C(O)C1CC[N-]CC1.O=C(O)C1CC[N-]CC1.O=C(O)C1CC[N-]CC1.[Cl][Rh][Cl]`, for which the T/C reads like this: under setting [15], 104 % of control; under setting [6], 94 % of control; under setting [7], 102 % of control.
As to `CC(O)c1cc(Cl)ccc1Cl` (configuration not stated), the T/C is, setting by setting: under setting [11], 93 % of control; (dose: 100.0 mg/kg/injection, schedule: Q04DX003 (ip), vehicle: saline with Tween-80) 107 % of control; under setting [12], 115 % of control; (dose: 200.0 mg/kg/injection, schedule: Q04DX003 (ip), vehicle: saline with Tween-80) 107 % of control; under setting [13], 103 % of control.
